These results are taken from ChEMBL document CHEMBL1201862, “PubChem BioAssay data set” (2004).

Assay [1] is described as follows: cells. It counts as functional, cell-based.
Assay [2] is described as follows: C. albicans growth with fluconazole, confirmation, fluorescence, retest (AID 2467). It counts as functional, cell-based.
Assay [3] in a line: NIH-3T3 fibroblast cytotoxicity, dose response, cytotoxicity control, cell-based, fluorescence, Alamar Blue, secondary assay (AID 2327).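 Also: NIH-3T3 mouse fibroblasts cultured with fluconazole at 8 µg/mL.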 Format: functional. In general terms: The colour change of resazurin is a common sign of viable cells or microbes.
In assay [4] the target is T1, Endoribonuclease toxin MazF (Escherichia coli K-12, UniProt P0AE70).
T1 sequence (P0AE70 whole entry): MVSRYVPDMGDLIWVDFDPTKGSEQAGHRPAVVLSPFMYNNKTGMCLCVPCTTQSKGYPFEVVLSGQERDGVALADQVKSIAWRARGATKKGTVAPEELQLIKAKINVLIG
Nature of the assay: MazF toxin RNase activators, dose response, biochemical, fluorescence, single-stranded RNA substrate, uHTS hits (AID 588481). Format: functional.

Assay [5] addresses T1, Endoribonuclease toxin MazF. Nature of the assay: fluorescent RNA oligo signal without MazF, dose response, counter-screen for MazEF activator project, biochemical, fluorescence, single-stranded RNase substrate (AID 588502). Format: functional. (A counterscreen serves to expose hits that act by an unwanted route or on another target.)
Assay [6] in a line: A Cell Based Secondary Assay To Explore Cytotoxicity of Compounds that Sensitize Mycobacterium Tuberculosis to Beta-Lactam Antibiotics. Format: functional.
For assay [7], the target named is T2, Microphthalmia-associated transcription factor (Homo sapiens, UniProt O75030).
T2 sequence (O75030 whole entry): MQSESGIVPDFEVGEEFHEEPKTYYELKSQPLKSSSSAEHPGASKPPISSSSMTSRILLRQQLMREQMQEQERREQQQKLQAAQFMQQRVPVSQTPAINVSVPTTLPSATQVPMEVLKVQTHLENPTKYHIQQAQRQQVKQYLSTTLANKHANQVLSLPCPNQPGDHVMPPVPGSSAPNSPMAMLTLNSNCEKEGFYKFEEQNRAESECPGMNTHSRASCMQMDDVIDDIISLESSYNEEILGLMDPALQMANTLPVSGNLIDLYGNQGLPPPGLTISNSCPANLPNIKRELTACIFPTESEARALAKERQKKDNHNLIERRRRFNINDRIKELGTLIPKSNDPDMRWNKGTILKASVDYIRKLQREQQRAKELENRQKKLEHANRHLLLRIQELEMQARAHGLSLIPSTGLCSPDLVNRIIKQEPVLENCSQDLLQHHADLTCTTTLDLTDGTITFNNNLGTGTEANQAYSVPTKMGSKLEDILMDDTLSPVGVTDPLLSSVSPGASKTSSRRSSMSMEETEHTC
Nature of the assay: TRPM1 promoter luciferase signal decrease, dose response, MITF inhibitor project, cell-based, SK-MEL-5, cherry-picked, set 3 (AID 493073).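 Also: SK-MEL-5 melanoma cells with luciferase driven by the MITF target TRPM1 promoter.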 Format: functional.

A short description of assay [8]: cells. It counts as functional, cell-based. This is another data set of the same source.
The target in assay [9] is T3, Heat shock factor protein 1 (Mus musculus, UniProt P38532).
T3 sequence (P38532 whole entry): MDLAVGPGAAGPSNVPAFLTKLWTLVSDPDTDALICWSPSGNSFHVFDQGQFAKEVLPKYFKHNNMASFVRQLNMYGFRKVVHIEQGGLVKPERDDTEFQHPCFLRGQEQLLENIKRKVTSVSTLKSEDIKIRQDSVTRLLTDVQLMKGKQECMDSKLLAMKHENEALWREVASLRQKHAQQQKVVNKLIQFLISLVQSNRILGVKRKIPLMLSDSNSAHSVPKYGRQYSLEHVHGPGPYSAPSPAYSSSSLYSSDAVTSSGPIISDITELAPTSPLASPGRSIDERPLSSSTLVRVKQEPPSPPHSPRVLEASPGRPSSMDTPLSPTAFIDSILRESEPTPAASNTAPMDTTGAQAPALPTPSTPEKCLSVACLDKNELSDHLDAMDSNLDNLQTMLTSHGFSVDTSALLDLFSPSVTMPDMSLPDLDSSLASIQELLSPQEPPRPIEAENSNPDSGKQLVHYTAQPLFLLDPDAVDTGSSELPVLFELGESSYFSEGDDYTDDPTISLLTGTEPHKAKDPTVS
Nature of the assay: inhibition of MG132-induced HSE-luciferase signal, confirmation, cell-based, NIH3T3, luminescence, dose retest (AID 2382).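 Also: NIH3T3 fibroblasts with HSF1-driven luciferase reporter stressed by proteasome inhibitor MG132; luminescence from HSF1-driven luciferase expression after 8 hours of MG132 stress.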 Format: functional.

The target of the next assay is Nonstructural protein 1 (Influenza A virus, UniProt Q194T2). It counts as functional, Influenza A virus (A/California/07/2009(H1N1)).
Assay [10] can be described thus: cells.
Assay [11] in a line: inhibitors of intracellular T. cruzi replication, confirmation, NIH3T3 host cells, beta-gal luminescence (AID 2044).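 Also: intracellular parasites grown in NIH/3T3 mouse fibroblasts as host cells; luminescent beta-galactosidase reporter signal from transgenic T. cruzi replicating inside host cells; inhibitors lower the luminescence signal.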 It counts as functional, cell-based.
A short description of assay [12]: cytotoxicity toward NIH3T3 fibroblasts, dose response, counter-screen, cell-based, ATP luminescence, mouse fibroblasts (AID 2010).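 Also: cells exposed to compound for about 90 hours before reading.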 It counts as functional.
A short description of assay [13]: cells. It counts as functional.
Another assay deals with Cytochrome P450 2D6 (Homo sapiens, UniProt P10635).
For a further assay, the target named is Cytochrome P450 2C9 (Homo sapiens, UniProt P11712).
A short description of assay [14]: Luminescence Cell-Based Dose Response HTS to Identify Activators of Luciferase Translation or Activity in H4 […] Cells. [Related pubchem assays: 1829 (Project Summary), 1814 (Primary HTS)]. It counts as functional.
Assay [15] deals with T4, Zinc finger protein mex-5 (Caenorhabditis elegans, UniProt Q9XUB2).
T4 sequence (Q9XUB2 whole entry): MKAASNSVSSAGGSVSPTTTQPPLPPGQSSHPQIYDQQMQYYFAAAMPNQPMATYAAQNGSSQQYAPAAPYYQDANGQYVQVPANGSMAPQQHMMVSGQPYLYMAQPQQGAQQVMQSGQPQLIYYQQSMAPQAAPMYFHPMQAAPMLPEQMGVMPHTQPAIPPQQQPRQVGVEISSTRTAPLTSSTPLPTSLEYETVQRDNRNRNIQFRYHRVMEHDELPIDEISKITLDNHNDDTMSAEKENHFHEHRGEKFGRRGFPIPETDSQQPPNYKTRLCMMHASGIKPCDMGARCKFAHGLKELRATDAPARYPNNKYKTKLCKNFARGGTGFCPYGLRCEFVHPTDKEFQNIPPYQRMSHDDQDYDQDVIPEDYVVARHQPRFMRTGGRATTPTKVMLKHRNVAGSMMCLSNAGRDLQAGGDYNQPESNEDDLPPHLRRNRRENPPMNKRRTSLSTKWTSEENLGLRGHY
The assay can be described thus: MEX-5/TCR-2 RNA interaction inhibitors, dose response, biochemical, C. elegans, fluorescence polarization (AID 1960).

Assay [16] is described as follows: Luminescence Cell-Based Dose Confirmation HTS to Identify Activators of 5'UTR Stem-Loop Driven Alpha-Synuclein mRNA Translation in H4 Neuroglioblastoma Cells. [Related pubchem assays: 1829 (Project Summary), 1814 (Primary HTS)]. It counts as functional.
Another assay relates to H4. Nature of the assay: Luminescence Cell-Based Dose Response HTS to Identify Activators of 5'UTR Stem-Loop Driven Prion Protein mRNA Translation in H4 Neuroglioblastoma Cells. [Related pubchem assays: 1829 (Project Summary), 1814 (Primary HTS)]. Format: functional. Particulars: Homo sapiens.
Assay [17] has as its target T5, RNA-binding protein pos-1 (Caenorhabditis elegans, UniProt G5EF15).
T5 sequence (G5EF15 whole entry): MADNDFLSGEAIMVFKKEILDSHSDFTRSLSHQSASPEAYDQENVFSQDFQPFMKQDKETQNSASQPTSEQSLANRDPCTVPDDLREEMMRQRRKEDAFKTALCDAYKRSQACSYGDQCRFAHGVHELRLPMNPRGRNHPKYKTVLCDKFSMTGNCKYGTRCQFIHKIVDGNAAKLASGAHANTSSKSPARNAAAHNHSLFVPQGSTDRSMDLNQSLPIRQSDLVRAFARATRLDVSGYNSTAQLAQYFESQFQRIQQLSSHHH
Nature of the assay: inhibitors of POS-1/mex-3 RNA binding, dose response, biochemical, fluorescence polarization (AID 1964).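 Also: purified POS-1 fused to maltose binding protein made in E. coli; potency of compounds blocking POS-1 binding to fluorescent RNA.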 In general terms: Fluorescence polarisation rises when a labelled molecule tumbles more slowly, as on binding a larger partner.

In another assay the test system is Vero. Nature of the assay: Vero cell cytotoxicity, cytotoxicity control for flavivirus capping enzyme inhibitors (AID 588742). Format: functional. Particulars: Chlorocebus sabaeus.
Assay [18] has as its target T6, Histone-lysine N-methyltransferase NSD2 (Homo sapiens, UniProt O96028).
T6 sequence (O96028 whole entry): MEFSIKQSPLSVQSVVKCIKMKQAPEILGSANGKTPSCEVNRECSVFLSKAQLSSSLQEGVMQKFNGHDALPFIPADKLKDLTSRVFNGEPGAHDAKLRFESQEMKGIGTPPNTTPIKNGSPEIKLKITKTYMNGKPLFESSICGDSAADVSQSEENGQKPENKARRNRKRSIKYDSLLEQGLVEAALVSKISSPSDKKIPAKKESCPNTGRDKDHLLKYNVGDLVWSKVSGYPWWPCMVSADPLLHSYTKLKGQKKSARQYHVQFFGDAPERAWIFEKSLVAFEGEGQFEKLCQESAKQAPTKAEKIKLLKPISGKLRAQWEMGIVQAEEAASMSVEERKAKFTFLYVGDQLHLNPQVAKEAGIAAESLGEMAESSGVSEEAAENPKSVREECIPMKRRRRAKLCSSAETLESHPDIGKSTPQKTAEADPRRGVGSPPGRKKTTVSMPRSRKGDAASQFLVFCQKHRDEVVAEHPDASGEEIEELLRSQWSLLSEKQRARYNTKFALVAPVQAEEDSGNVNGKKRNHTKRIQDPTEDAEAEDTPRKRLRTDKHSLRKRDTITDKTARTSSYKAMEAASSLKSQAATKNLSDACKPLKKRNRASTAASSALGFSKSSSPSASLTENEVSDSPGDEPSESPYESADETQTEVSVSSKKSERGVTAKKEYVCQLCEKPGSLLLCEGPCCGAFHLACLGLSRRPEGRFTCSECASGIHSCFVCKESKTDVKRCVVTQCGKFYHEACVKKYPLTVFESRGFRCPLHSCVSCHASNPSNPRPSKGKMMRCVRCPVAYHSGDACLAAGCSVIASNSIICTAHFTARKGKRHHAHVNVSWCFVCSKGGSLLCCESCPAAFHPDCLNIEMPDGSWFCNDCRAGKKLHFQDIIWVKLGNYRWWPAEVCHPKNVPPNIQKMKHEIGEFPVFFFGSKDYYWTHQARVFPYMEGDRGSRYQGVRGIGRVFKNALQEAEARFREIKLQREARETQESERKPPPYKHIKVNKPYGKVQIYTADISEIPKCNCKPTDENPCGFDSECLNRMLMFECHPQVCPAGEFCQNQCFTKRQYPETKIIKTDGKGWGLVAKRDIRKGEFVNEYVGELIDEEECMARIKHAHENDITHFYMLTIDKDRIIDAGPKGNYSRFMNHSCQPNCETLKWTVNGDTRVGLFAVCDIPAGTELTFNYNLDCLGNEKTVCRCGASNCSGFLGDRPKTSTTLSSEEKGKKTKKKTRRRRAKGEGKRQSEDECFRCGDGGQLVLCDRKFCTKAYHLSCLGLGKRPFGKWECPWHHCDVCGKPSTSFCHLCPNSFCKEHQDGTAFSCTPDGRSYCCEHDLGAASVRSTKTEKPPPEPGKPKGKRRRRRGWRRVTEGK
It counts as biochemical.

Molecules are shown by their SMILES. Calls of active or inactive are those of the source.

Sequence of Nonstructural protein 1 (Q194T2 whole entry): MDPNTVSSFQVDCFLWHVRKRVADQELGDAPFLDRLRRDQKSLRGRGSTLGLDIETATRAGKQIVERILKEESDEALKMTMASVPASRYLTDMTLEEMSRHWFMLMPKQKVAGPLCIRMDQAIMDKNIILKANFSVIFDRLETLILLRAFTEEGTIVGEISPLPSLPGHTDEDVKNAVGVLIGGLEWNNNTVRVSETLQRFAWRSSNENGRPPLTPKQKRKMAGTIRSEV
Sequence of Cytochrome P450 2D6 (P10635 whole entry): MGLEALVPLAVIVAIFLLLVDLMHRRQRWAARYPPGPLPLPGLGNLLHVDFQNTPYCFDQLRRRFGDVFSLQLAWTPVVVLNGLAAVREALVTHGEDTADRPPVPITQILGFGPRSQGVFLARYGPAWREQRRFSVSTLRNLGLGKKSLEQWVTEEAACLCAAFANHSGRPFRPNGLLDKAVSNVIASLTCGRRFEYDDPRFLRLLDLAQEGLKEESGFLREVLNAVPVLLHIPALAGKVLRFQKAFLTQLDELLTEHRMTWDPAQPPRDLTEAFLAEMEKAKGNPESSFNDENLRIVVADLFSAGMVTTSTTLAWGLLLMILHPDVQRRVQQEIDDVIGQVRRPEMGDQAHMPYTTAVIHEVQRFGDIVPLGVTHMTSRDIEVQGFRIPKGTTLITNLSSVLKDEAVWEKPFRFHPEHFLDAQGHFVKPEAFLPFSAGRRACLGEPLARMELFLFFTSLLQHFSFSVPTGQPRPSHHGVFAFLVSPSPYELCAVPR
Sequence of Cytochrome P450 2C9 (P11712 whole entry): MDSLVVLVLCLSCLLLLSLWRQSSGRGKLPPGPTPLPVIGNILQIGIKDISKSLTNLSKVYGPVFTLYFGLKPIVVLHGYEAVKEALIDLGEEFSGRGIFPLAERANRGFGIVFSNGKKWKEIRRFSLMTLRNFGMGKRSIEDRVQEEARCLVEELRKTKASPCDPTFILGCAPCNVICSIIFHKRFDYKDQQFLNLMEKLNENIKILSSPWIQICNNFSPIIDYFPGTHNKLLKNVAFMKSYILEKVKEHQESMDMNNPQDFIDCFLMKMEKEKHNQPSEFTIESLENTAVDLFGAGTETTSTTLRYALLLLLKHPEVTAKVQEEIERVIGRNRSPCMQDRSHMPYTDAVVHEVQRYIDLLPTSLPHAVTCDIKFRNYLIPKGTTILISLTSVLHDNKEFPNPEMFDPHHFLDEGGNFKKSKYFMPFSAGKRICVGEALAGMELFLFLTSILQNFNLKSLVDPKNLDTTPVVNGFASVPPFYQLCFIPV

For orientation: EC50 means the midpoint of the concentration-response curve. Broadly, the CC50 is the concentration giving 50% cytotoxicity. For orientation: AC50 means the concentration giving half of the maximal activity seen. As to `O=C(CSCC(=O)Nc1ccccc1)N/N=C/c1c(O)ccc2ccccc12`, the EC50 was 9.25 µM (active) in “cells [1]”; > 38 µM (not active) in assay [2]; > 160 µM (inactive) in assay [3]; > 99 µM (inactive) in assay [4]; > 99 µM (inactive) in [5]; > 350 µM (not active) in “cells [8]”. In addition, in assay [6], the 50% cytotoxic concentration (CC50) was 6.22 µM (active). Besides, the AC50 in assay [7] is 3.34 µM (active).
For the molecule `Cc1ccc2cc3c(N)c(C(=O)Nc4c(C)[nH]c(=O)[nH]c4=O)sc3nc2c1`, the EC50 in assay [4] and in assay [5] was > 99 µM (inactive) each time.
By IC50 is commonly meant the concentration needed to halve the response being measured. Consider `Cc1ccc(O)c(/C=N/NC(=O)CN2CCCC2)c1`, for which the values for the EC50 (in the assay “cells [1]”; in assay [9]) were 104 µM (active) and > 195 µM (not active), respectively. The IC50 on Nonstructural protein 1 is 15.3 µM (active).
As for `CC(=O)n1c(/C=N/c2ccc(Cl)cc2)c(O)c2ccccc21`, the results for the EC50 in assay [4] and in [5] were > 99 µM (inactive) and 31.1 µM (inactive), respectively.
Regarding `O=C(c1ccc([N+](=O)[O-])o1)N1CCc2ccccc2C1`, the EC50 in “cells [10]” is 0.042 µM (active); in assay [11] it was < 0.1 µM (active); in assay [12], > 60 µM (not active). Moreover, the IC50 in “cells [13]” was 0.45 µM (active).
With `CC(C)Oc1cccc(C(=O)C2CCCN(Cc3ccc(Oc4ncccn4)cc3)C2)c1` (stereo not given), the EC50 in “cells [10]” is 0.081 µM (active); in [11], < 0.1 µM (active); in assay [12], > 60 µM (not active).
For the molecule `CCOc1cccc(CN2CCCC(N3CCc4cc(OC)c(OC)cc4C3)C2)c1O` (stereo not given), the EC50 in the assay “cells [10]” was 0.084 µM (active); in assay [11], < 0.1 µM (active); in assay [12], > 60 µM (not active).
Consider `O=C(CCCn1cnc([N+](=O)[O-])n1)Nc1ccc(Cl)c(Cl)c1`, for which the EC50 is 0.054 µM (active) in “cells [10]”, < 0.1 µM (active) in assay [11] and > 60 µM (not active) in assay [12]. Further, the AC50 at Cytochrome P450 2D6 and on Cytochrome P450 2C9 was 15.8 µM (inconclusive) throughout.
Consider `CCN1C(=O)/C(=C2/C=Cc3ccccc3N2C)OC1=S`, for which the EC50 in assay [14] is 4.49 µM (active); in [4], > 99 µM (inactive); in assay [5] it was > 99 µM (inactive); in assay [15], 3.94 µM (inconclusive); in [16], 2.39 µM (active); in the assay on H4, 39.4 µM (active). The EC50 in assay [17] was 55.8 µM (active).
Consider `CCOC(=O)C1=C(C)N=c2s/c(=C/c3cccc([N+](=O)[O-])c3O)c(=O)n2C1c1ccccc1` (stereo not given), for which the CC50 in the assay on Vero is 31.1 µM (active). Moreover, the AC50 in assay [18] was > 20 µM (inactive). Also, on Nonstructural protein 1, the IC50 is 22.1 µM (active).
